Assay [1] deals with T1, P2Y12 receptor (Homo sapiens, UniProt Q9H244). The assay is described as follows: Human P2Y12 recombinant cell membrane binding assay with 33P 2MeS-ADP (Assay 3). Further details: expressed in transfected cells; host or cells: HEK cells. Conditions: highest concentration tested 1 μM; read-out: [33P]-2MeS-ADP Binding to Recombinant Human P2Y12 Membranes (Assay 3) % Inhibition.

For assay [2], the target named is T1, P2Y12 receptor. The assay is described as above. Further details: expressed in transfected cells; host or cells: HEK cells. To be noted: for IC50 / Ki: HEK cell membranes expressing P2Y12, multiple lines = multiple runs; for [33P]-2MeS-ADP Binding to Recombinant Human P2Y12 Membranes (Assay 3) % Inhibition / inhibition at 10 µM: highest concentration tested 10 μM; for inhibition at 10 µM: read-out: [33P]-2MeS-ADP Binding to Recombinant Human P2Y12 Membranes (Assay 3) % Inhibition. Here is the method:
3. Human P2Y12 Recombinant Cell Membrane Binding Assay with ^33P 2MeS-ADP.
The ability of a test compound to bind to the P2Y12 receptor was evaluated in a recombinant cell membrane binding assay. In this competitive binding assay, the test compound competed against a radiolabelled agonist for binding to the P2Y12 receptor, expressed on the cell membrane. Inhibition of binding of the labeled material was measured and correlated to the amount and potency of the test compound. Data from this assay are presented in Table F. This binding assay is a modification of the procedure in Takasaki, J. et. al, Mol. Pharmacol., 2001, Vol. 60, pg. 432.
HEK cells were transfected with the pDONR201P2Y12 vector and cultured in MEM with GlutaMAX I, Earle's salts, 25 mM HEPES (Gibco # 42360-032) containing 10% dialyzed FBS (Gibco # 26400-044), 100 μM nonessential amino acids (Gibco # 11140-050), 1 mM sodium pyruvate (Gibco # 11360-070), 0.05% geneticin (Gibco #10131-027), 3 μg/mL blasticidin (Fluka brand from Sigma # 15205), and 0.5 μg/mL puromycin (Sigma # P-8833).
Confluent cells were washed once with cold DPBS (Gibco # 14190-136). Fresh DPBS was added and the cells were scraped and centrifuged at 500×g for 5 minutes at 4° C. The cell pellets were resuspended in TEE buffer (25 mM Tris, 5 mM EDTA, 5 mM EGTA) containing 1 protease inhibitor cocktail tablet (Roche # 1 873 580) per 50 mL (called TEE+Complete) and can be flash frozen at this point.
In one embodiment, frozen cell pellets were used to prepare the membranes. In that embodiment, the frozen cell pellets were thawed on ice. In another embodiment, cell pellets may be used without flash freezing before moving on to the next step.
Cell pellets were resuspended in TEE buffer+Complete and homogenized in a glass dounce for 12 strokes. The cell suspension was centrifuged at 500×g for 5 minutes at 4° C. The supernatant was saved and centrifuged at 20,000×g for 20 minutes at 4° C. This supernatant was discarded and the cell pellet resuspended in TEE buffer+Complete and homogenized in a glass dounce for 12 strokes. This suspension was centrifuged at 20,000×g for 20 minutes at 4° C. and the supernatant discarded. The pellet was resuspended in assay buffer (50 mM Tris, 100 mM NaCl, 1 mM EDTA) containing one protease inhibitor cocktail tablet per 50 mL, and can be flash frozen as 1 mL aliquots at this point.
Dry compounds were diluted as 10 mM DMSO stocks and tested in a seven-point, three-fold dilution series run in triplicate beginning at 10 μM, final concentration. A 1 mM DMSO intermediate stock was made in a dilution plate and from this the seven dilutions were made to 5× the final concentration in assay buffer containing 0.02% BSA.
To a polypropylene assay plate (Costar # 3365) the following were added: a) 30 μL of assay buffer containing one protease inhibitor cocktail tablet per 50 mL; b) 30 μL of 1 nM ^33P 2MeS-ADP made in assay buffer containing 0.02% BSA and 12.5 mg/mL ascorbic acid; 30 μL of cold 1.5 μM 2MeS-ADP for the positive control wells, or assay buffer containing 0.02% BSA and 12.5 mg/mL ascorbic acid for the negative control wells, or 5× drug dilution; and 60 μL of 1 ug/well membranes.
The plates were incubated at room temperature for 1 hour. The reaction was stopped using a cell harvester to transfer the reaction mixture onto GF/B UniFilter plates (Perkin Elmer # 6005177), and washed three times with wash buffer (50 mM Tris), filtering between each wash. The filter plates were dried for approximately 20 minutes in an oven at 50° C. Back seals were adhered to the filter plates and 25 uL of Microscint 20 scintillation fluid (Perkin Elmer # 6013621) were added. The filter plates were sealed, shaken for 30 minutes, and counted on a Top Count. Data were analyzed using a four-parameter curve fit with a fixed minimum and maximum experimentally defined as the average positive and negative controls on each plate, and with a hill slope equal to one.

Assay [3] deals with T1, P2Y12 receptor. The assay is described as follows: Inhibition of [33P]2MeS-ADP binding to washed human platelet membranes (Assay 1). The arrangement: the P2Y12 receptor, which is found on the surface of platelets; tissue Interstate Blood bank, Memphis, Tenn; host or cells: human platelets from platelet rich plasma. Conditions: for inhibition at 10 µM: highest concentration tested 10 μM. Here is the method:
1. Inhibition of [^33P]2MeS-ADP Binding to Washed Human Platelet Membranes. The ability of a test compound to bind to the P2Y12 receptor was evaluated in a platelet membrane binding assay. In this competitive binding assay, the test compound competed against a radiolabelled agonist for binding to the P2Y12 receptor, which is found on the surface of platelets. Inhibition of binding of the labeled material was measured and correlated to the amount and potency of the test compound. Data from this assay are presented in Table F. Platelet rich plasma (“PRP”) was obtained from the Interstate Blood bank, Memphis, Tenn. Platelet rich plasma was prepared from blood units collected in ACD ((prepared by (1) combining: 2.5 g sodium citrate (Sigma S-4641); 1.5 g citric acid (Sigma C-0706); and, 2.0 g dextrose (Sigma G-7528); (2) bringing pH to 4.5; and (3) adding water to bring volume to 100 mL) and using the light spin protocol; this protocol involves centrifugation at room temperature for approximately 20 minutes at speeds up to 160×g. Platelet rich plasma is supplied in units of approximately 200 ml. Each unit is distributed into four 50 mL polypropylene conical tubes for centrifugation, Blood from each donor is maintained separately.
The 50 mL tubes were centrifuged for 15 minutes at 1100 rpm in Sorvall RT6000D (with H1000B rotor). Internal centrifuge temperature was maintained at approximately room temperature (22-24° C.). This spin pelleted cellular components remaining from the PRP preparation. The supernatant was decanted into fresh 50 mL tubes. To avoid carry over of cellular components following the room temperature centrifugation, approximately 5 mL of PRP was left in the tube and discarded. The tubes were capped and inverted 2-3 times and allowed to stand at room temperature for at least 15 minutes following inversion.
Optionally, a Coulter Counter may be used to count platelets from the resting samples during the resting phase. Normal human platelet counts are expected to range from 200,000 to 400,000 per μL of PRP supernatant.
The 50 mL tubes containing PRP supernatant were centrifuged for 15 minutes at 2300-2400 rpm to loosely pellet the platelets. The supernatant from this spin was decanted immediately into a clean cell culture bottle (Corning bottle) and saved in case further centrifugation was needed. The pellet of each tube was resuspended in 2-4 mL of Wash buffer (pH 6.5) (1 L prepared new daily—134 mM NaCl (Sigma S-5150); 3 mM KCl (Sigma P-9333); 1 mM CaCl2 (JT Baker 1311-01); 2 mM MgCl2 (Sigma M-2670); 5 mM glucose (EM 4074-2); 0.3 mM NaH2PO4 (Sigma S-9638)/12 mM NaHCO3 (J T Baker 3506-01); 5 mM HEPES pH 7.4 (Gibco 12379-012); 0.35% BSA (Sigma A-7906); 330 mg Heparin (bovine lung, Sigma H-4898); and 30 mL of ACD) by repeated gentle aspiration using disposable polypropylene sample pipettes.
Wash buffer (pH 6.5) was added to each tube to bring the volume to approximately 40 mL. Each tube was incubated for at least 15 minutes at 37° C.
The tubes were then centrifuged again for 15 minutes at 2300-2400 rpm to loosely pellet the platelets. The supernatant was decanted and discarded. The pellet was resuspended in 2-4 mL of Assay buffer (pH 7.4) (1 L volume—134 mM NaCl; 3 mM KCl; 1 mM CaCl2; 2 mM MgCl2; 5 mM glucose; 0.3 mM NaH2PO4/12 mM NaHCO3; 5 mM HEPES pH 7.4; and 0.35% BSA) by repeated aspiration using disposable polypropylene sample pipettes.
The pooled platelet preparation was counted using a Coulter Counter. The final concentration of platelets was brought to 1×10^6 per μL using Assay buffer pH 7.4. The platelets were rested for a minimum of 45 minutes at 37° C. before use in the assay.
In one embodiment, the compounds were tested in 96-well microtiter filterplates (Millipore Multiscreen-FB opaque plates, #MAFBNOB50). These plates were used in the assay and pre-wet with 50 μL of Assay buffer pH 7.4 then filtered through completely with a Millipore plate vacuum. […]

The mark [4] stands for this setting: washed human platelet membranes.

Each structure is given as a SMILES string. Where “and” joins values, the source holds several entries; their conditions need not be identical. Equal entries are not always repeated.

T1 sequence (Q9H244 whole entry): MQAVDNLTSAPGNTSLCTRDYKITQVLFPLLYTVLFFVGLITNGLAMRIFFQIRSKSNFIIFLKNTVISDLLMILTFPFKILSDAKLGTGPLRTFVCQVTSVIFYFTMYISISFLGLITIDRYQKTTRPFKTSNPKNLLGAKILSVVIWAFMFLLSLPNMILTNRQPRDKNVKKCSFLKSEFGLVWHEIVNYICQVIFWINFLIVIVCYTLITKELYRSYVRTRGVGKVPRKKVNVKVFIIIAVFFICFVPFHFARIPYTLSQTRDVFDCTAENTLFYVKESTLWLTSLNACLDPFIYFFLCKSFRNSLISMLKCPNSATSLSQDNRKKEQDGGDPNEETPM

By inhibition is commonly meant the drop in the measured response relative to a control, in per cent. One may read the IC50 as the concentration needed to halve the response being measured. One may read the Ki as a dissociation constant, usually derived from enzyme kinetics or from competition with a known ligand. For `CCc1cc2c(N3CCN(C(=O)c4ccc(-c5ccccc5)cc4)CC3)nc(NC(CO)CO)nc2s1` [Example 31, 2-({4-[4-(1,1′-biphenyl-4-ylcarbonyl)piperazin-1-yl]-6-ethylthieno[2,3-d]pyrimidin-2-yl}amino)propane-1,3-diol], at P2Y12 receptor [1], the inhibition at 1 µM was 93%. Besides, on P2Y12 receptor [2], the IC50 was 21 nM and the Ki stood at 12 nM.

On to `CCc1cc2c(N3CCN(C(=O)c4cccc(-c5ccccc5)c4)CC3)nc(NC[C@@H](O)CO)nc2s1` [Example 30, (2R)-3-({4-[4-(1,1′-biphenyl-3-ylcarbonyl)piperazin-1-yl]-6-ethylthieno[2,3-d]pyrimidin-2-yl}amino)propane-1,2-diol], for which the inhibition at 1 µM at P2Y12 receptor [1] turned out to be 88%. Further, on P2Y12 receptor [2], the IC50 is 63 nM and 80 nM and 105 nM; the inhibition constant (Ki) was 33 nM and 50 nM and 61 nM; the “[33P]-2MeS-ADP Binding to Recombinant Human P2Y12 Membranes (Assay 3) % Inhibition” value (“[33P]-2MeS-ADP Binding … (Assay 3) % Inhibition” below) is 96.44%; the inhibition at 10 µM turned out to be 97.7%.

Turning to `CCc1cc2c(N3CCN(C(=O)c4ccc(-c5ccccc5)cc4)CC3)nc(NC[C@H](O)CO)nc2s1` [Example 26, (2S)-3-({4-[4-(1,1′-biphenyl-4-ylcarbonyl)piperazin-1-yl]-6-ethylthieno[2,3-]pyrimidin-2-yl}amino)propane-1,2-diol], the inhibition at 1 µM at P2Y12 receptor [1] was determined as 90%. In addition, at P2Y12 receptor [2], the IC50 is 20 nM and 61 nM and 47 nM; the Ki was 10 nM and 35 nM and 27 nM; the “[33P]-2MeS-ADP Binding … (Assay 3) % Inhibition” value is listed as 94.85%; the inhibition at 10 µM stood at 98.6%.

Turning to `CCc1cc2c(N3CCN(C(=O)c4cccc(-c5ccccc5)c4)CC3)nc(NC[C@H](O)CO)nc2s1` [Example 29, (2S)-3-({4-[4-(1,1′-biphenyl-3-ylcarbonyl)piperazin-1-yl]-6-ethylthieno[2,3-d]pyrimidin-2-yl}amino)propane-1,2-diol], the inhibition at 1 µM at P2Y12 receptor [1] worked out at 89%. Further, on P2Y12 receptor [2], the IC50 is 68 nM and 50 nM and 132 nM; the Ki is 36 nM and 30 nM and 76 nM; the “[33P]-2MeS-ADP Binding … (Assay 3) % Inhibition” value came out at 93.19%; the inhibition at 10 µM came to 97.3%.

`CCc1cc2c(N3CCN(C(=O)Cc4ccccc4)CC3)nc(NCCCO)nc2s1` [Example 9, 3-({6-Ethyl-4-[4-(phenylacetyl)piperazin-1-yl]thieno[2,3-d]pyrimidin-2-yl}amino)propan-1-ol] returned an inhibition at 10 µM at P2Y12 receptor [3] of 75%. Also, on P2Y12 receptor [3] (setting [4]), the IC50 is 3400 nM and the inhibitory constant (Ki) was found to be 3210 nM.

For `CCc1cc2c(N3CCN(C(=O)Cc4ccccc4)CC3)nc(NCCCc3ccccc3)nc2s1` [Example 7, 6-Ethyl-4-[4-(phenylacetyl)piperazin-1-yl]-N-(3-phenylpropyl)thieno[2,3-d]pyrimidin-2-amine], at P2Y12 receptor [3], at 10 µM the inhibition was 37.4%. For the same compound, the half-maximal inhibitory concentration (IC50) on P2Y12 receptor [3] (setting [4]) was above 10000 nM.

In the case of `CCc1cc2c(N3CCN(C(=O)Cc4ccccc4)CC3)nc(NCCO)nc2s1` [Example 11, 2-({6-Ethyl-4-[4-(phenylacetyl)piperazin-1-yl]thieno[2,3-d]pyrimidin-2-yl}amino)ethanol], the inhibition at 1 µM on P2Y12 receptor [1] came out at 51%. Further, on P2Y12 receptor [2], the IC50 was 1130 nM and 1190 nM and 905 nM; the Ki is 650 nM and 687 nM and 905 nM; the “[33P]-2MeS-ADP Binding … (Assay 3) % Inhibition” value is listed as 82.93%; the inhibition at 10 µM turned out to be 76.7%.

Consider `CCc1cc2c(N3CCN(C(=O)Cc4ccccc4)CC3)nc(NC3CCCC3)nc2s1` [Example 12, N-Cyclopentyl-6-ethyl-4-[4-(phenylacetyl)piperazin-1-yl]thieno[2,3-d]pyrimidin-2-amine], for which at 10 µM the inhibition at P2Y12 receptor [3] was 43.6%. For the same compound, the IC50 on P2Y12 receptor [3] (setting [4]) is above 10000 nM.

Take `CCc1cc2c(N3CCN(C(=O)c4ccc(-c5ccccc5)cc4)CC3)nc(NC[C@@H](O)CO)nc2s1` [Example 27, (2R)-3-({4-[4-(1,1′-biphenyl-4-ylcarbonyl)piperazin-1-yl]-6-ethylthieno[2,3-d]pyrimidin-2-yl}amino)propane-1,2-diol]: the inhibition at 1 µM on P2Y12 receptor [1] was 92%. Moreover, at P2Y12 receptor [2], the IC50 was 10 nM and 48 nM and 43 nM; the Ki was 10 nM and 28 nM and 25 nM; the “[33P]-2MeS-ADP Binding … (Assay 3) % Inhibition” value came out at 93.86%; the inhibition at 10 µM was determined as 100%.

The values above are taken from US20080194590A1, “4-Piperazinylthieno [2,3-D] Pyrimidine Compounds as Platelet Aggregation Inhibitors” (Pfizer Inc, priority 2005, published 2008).
